Assays:
Glutag cells = experiment: GLP-1 secretion by Glutag cells; assay type: cell-based, murine; conditions: Glutag cells, inhibitor 1 hour before oleoyl-LPI (PD98059 50 μM; H89 10 μM)
Description: Glutag cells were maintained in low glucose DMEM (Sigma) (1 g/L) containing 2.0 mM L-glutamine, 1.0 mM sodium pyruvate and supplemented with 10% FBS, 100 IU/ml penicillin, 100 μg/ml streptomycin at a 37° C. and 5% CO2.
(§1) Approximately 80,000 Glutag cells were plated in poly-L-lysine-coated 24-well culture plates and grown to about 80% confluence. NCI-H716 cells were seeded on growth factor reduced Matrigel™ (Becton Dickinson, Bedford, MA) in DMEM medium, supplemented with 10% FBS the day before the experiment. For NCI-H716 cells, approximately 25,000 cells were needed for this secretion experiment in order to have good stimulation with lower basal GLP-1 secretion. In brief, Glutag and NCI-H716 cells were washed twice and then incubated for 2 h with FBS-free DMEM containing 1% (M:C) alone (negative control), 10 μM forskolin as positive control (Sigma-Aldrich), or with different concentrations of Oleoyl-LPI. M:C was used as a solvent to prepare stock solutions of fatty acid derivatives and inhibitors. For secretion experiments, medium and cells were collected separately.
(§2) In separate studies, GLUTag or NCI-H716 cells were pre-treated for 1 hour with medium alone (1% DMSO, negative control), PD98059 (50 μM; Sigma Chemical Co.), H89 (10 μM; Santa Cruz) followed by treatment with oleoyl-LPI (20 μM), OEA (10 μM), AR231453(1 μM), PMA (10 μM) or forskolin (10 μM, positive control) in the presence of inhibitors, as appropriate, for about 2 h. Medium GLP-1 secretion was calculated as total GLP-1 content of medium normalised for the basal secretion of the control.
(§3) In order to investigate the role of different LPI species in enteroendocrine cells, murine (Glutag) and human (NCI-H716) L-cells were stimulated with the following different species of LPI: Arachidonyl-LPI, Stearoyl-LPI, Heptadecenoyl-LPI and oleoyl-LPI, as well as with OEA and LPC. Experiments were performed in duplicate, n=4 and the level of total GLP-1 was measured by ELISA.

NCI-H716 cells = experiment: GLP-1 secretion by NCI-H716 cells (Examples 2-8); assay type: cell-based, human; conditions: NCI-H716 cells, inhibitor 1 hour before oleoyl-LPI (PD98059 50 μM; H89 10 μM)
Description: NCI-H716 cells were maintained in 75 cm^2 tissue culture flasks (Corning) in RPMI 1640 media containing 2.0 mM L-glutamine, 1.5 g/L sodium bicarbonate, 10 mM HEPES buffer, 1.0 mM sodium pyruvate, and 4.5 g/L glucose and supplemented with 10% FBS at a 37° C. and 5% CO2. When plating for experiment, cell adhesion and endocrine differentiation were initiated by growing cells in dishes coated with growth factor reduced Matrigel diluted at the ratio of 1:2 (Becton Dickinson, Bedford, MA) in high-glucose DMEM, 10% FBS, 2 mM glutamine, 100 IU/ml penicillin, and 100 μg/ml streptomycin as described previously by De Bruine, a P., Dinjens, W. N., van der Linden, E. P., Pijls, M. M., Moerkerk, P. T., & Bosman, F. T. (1993) The American Journal of Pathology, Vol 142(3), pp 773-782, the disclosure of which is incorporated herein in its entirety by reference.
as §1, §2, §3

ERK = ERK phosphorylation by Western blot, NCI-H716 cells; assay type: cell-based, human; conditions: pre-treatment 1 hour, 50 μM, then oleoyl-LPI
Description: When cell cultures reached 80-90%, media were removed and cells were washed twice with 1×PBS. The cells were lysed in 150 μl (for one well of a 6 well plate) of Triton X-100 lysis buffer, containing phosphatase inhibitor cocktail (1:1000) (Sigma Aldrich, UK) and protease inhibitor (1:1000, Sigma Aldrich, UK). Cells were detached with scrapers and lysate were collected and centrifuged at 10,000 rpm, 4° C. for 5 minutes. The supernatant was then transferred to a 1.5 ml microcentrifuge tube and used for protein quantification. Cell lysates were stored at −20° C. for longer storage. All lysates were prepared on ice.
Non-specific antibody binding was prevented by incubating the nitrocellulose membrane in 5% milk in PBS-0.05% Tween-20 (v/v) for 30 minutes on a rotating plate. The membrane was then washed in PBS-0.05% Tween-20 (v/v) and then incubated with the primary antibody diluted in PBS-0.05% Tween-20 (v/v) on a rotating plate overnight at 4° C. After 24 hours, the membrane was washed 5× for 5 minutes with PBS-0.05% Tween-20 (v/v), and then incubated on a rotating plate with the appropriate secondary antibody for 1 hour at room temperature. […]

GPR55 mRNA = experiment: siRNA knockdown of GPR55 mRNA by real-time RT-PCR; assay type: cell-based, murine; conditions: Glutag cells, 48 hours post transfection
Description: Transfection was performed according to the “Lipofectamine transfection protocol” (Invitrogen, Life Technologies) and optimised for a 6-well plate format. Briefly, cells were plated in complete growth medium at a density of 3.0×10^5/well in a 6-well plate and incubated at 37° C./5% CO2. Twenty-four hours later, when cells were ˜60% confluent, transfection was performed in RNAse-free conditions. 300 nM of total siRNA pool and 4.0 μl of Lipofectamine transfection reagent were diluted in separate tubes in Optimem and incubated for 5 min at room temperature (RT). The contents of the tubes were carefully mixed and incubated again for 20 min at RT. Cells were washed twice with sterile 1×PBS and incubated in 300 μL of Optimem. After 20 min, transfection complexes were added to the cells drop wise. Cells were then incubated for 4 hours before adding Optimem containing 30% serum without antibiotic. Cells were further incubated at 37° C./5% CO2 for 48 h before secretion experiment. […]
Transfection efficiency was quantified by real-time RT-PCR. […]
RT-qPCR was performed according to manufacturer's instructions (Cat. No. K0222, Fermentas). […] The relative changes in gene expression quantification were calculated using the relative ddCT analysis mode of the ABI 7500 Real-Time PCR system software.

| Molecule | oleoyl-LPI induced GLP-1 secretion with inhibitor pre-treatment (Glutag cells) | oleoyl-LPI induced GLP-1 secretion with inhibitor pre-treatment (NCI-H716 cells) | ERK phosphorylation (ERK) | knockdown of GPR55 mRNA (GPR55 mRNA) [%] |
| --- | --- | --- | --- | --- |
| COc1cccc(-c2cc(=O)c3ccccc3o2)c1N [PD98059] | significantly reduced oleoyl-LPI induced GLP-1 secretion | significantly reduced oleoyl-LPI induced GLP-1 secretion | substantially reduced ERK phosphorylation | – |
| GPR55 siRNA: murine siRNA against GPR55, ACAGGGAAGUGGAGAGAUA (SEQ ID NO: 3) (listed as RNA, chemistry not given here; listed as Mus musculus) | – | – | – | 80 |

From patent US12503426B2, “Synthetic derivatives of oleoyl-lysophosphatidylinositol (oleoyl-LPI) and uses thereof” (LIPOVEXA SRL, priority 2017, dated 2025)
